# Entries after “also recorded” stand apart in the source; their conditions may differ.
# What was measured:
# bovine thymus VDR = target: T1, bovine thymus VDR (Bos taurus, UniProt Q28037); experiment: Radioreceptor assay with bovine thymus VDR (Incstar), displacement of 3H-1α,25-(OH)2 D3; format: binding
# T1 construct: commercially available kit of bovine thymus VDR; purchased Incstar (Stillwater, Minn.); host or cells: bovine thymus
# T1 sequence (Q28037 1-426): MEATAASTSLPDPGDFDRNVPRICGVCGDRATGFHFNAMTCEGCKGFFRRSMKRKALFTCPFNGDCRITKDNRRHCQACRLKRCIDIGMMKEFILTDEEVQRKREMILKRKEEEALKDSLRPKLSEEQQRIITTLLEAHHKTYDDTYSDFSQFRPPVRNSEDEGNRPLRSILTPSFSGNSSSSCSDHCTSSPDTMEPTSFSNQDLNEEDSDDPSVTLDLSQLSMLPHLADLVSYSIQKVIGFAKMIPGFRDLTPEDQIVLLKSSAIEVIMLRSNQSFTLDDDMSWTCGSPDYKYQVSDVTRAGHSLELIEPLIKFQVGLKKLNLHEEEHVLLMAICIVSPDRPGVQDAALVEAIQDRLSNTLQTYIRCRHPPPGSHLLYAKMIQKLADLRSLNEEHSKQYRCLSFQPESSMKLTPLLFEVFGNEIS
# Source text: Purified 1α,24(S)-(OH)2 D2 was quantitated by photodiode array spectrophotometry and assayed in the radioreceptor assay.
# The purified 1α,24(R)-(OH)2 D2 and 1α,24(S)-(OH)2 D2 epimers were quantitated by ultraviolet spectroscopy. The concentration of 1α,24(R)-(OH)2 D2 required to produce the same displacement of ^3 H-1α,25-(OH)2 D3 tracer from the receptor was 20 to 30 times that required for 1α,24(S)-(OH)2 D2, as shown in FIG. 4.
# [1] = target: T2, vitamin D serum binding protein (DBP) (Rattus norvegicus, UniProt P04276); experiment: Binding to vitamin D serum binding protein in vitamin D deficient rat serum
# T2 sequence (P04276 17-476): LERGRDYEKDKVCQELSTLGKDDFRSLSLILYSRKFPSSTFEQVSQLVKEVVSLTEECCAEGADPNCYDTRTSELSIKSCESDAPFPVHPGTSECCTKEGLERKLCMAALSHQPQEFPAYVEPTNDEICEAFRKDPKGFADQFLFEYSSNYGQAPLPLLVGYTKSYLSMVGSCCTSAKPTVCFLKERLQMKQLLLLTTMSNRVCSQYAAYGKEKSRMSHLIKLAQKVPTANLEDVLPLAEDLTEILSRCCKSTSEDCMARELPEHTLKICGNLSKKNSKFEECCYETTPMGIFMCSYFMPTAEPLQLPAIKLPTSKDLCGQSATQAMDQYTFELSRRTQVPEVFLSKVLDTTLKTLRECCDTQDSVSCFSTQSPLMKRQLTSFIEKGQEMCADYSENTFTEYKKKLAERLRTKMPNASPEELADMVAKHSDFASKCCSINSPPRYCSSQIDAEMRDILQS
# Source text: In addition, the weak binding by the DBP was indicative of more rapid clearance, allowing for low toxicity.
# [2] = Preventive treatment of bone mass loss in postmenopausal osteoporotic women; format: in vivo, human; settings: at or above 1.0 μg/day, 24 to 36 months
# Experimental: A clinical study is conducted with postmenopausal osteoporotic out-patientshaving ages between 55 and 75 years. The study involves up to 120 patients randomly divided into three treatment groups and continues for 24 to 36 months. Two of the treatment groups receive constant dosages of 1α,24(S)-dihydroxy vitamin D2 (u.i.d.; two different dose levels at or above 1.0 μg/day) and the other group receives a matching placebo. All patients maintain a normal intake of dietary calcium (500 to 800 mg/day) and refrain from using calcium supplements. Efficacy is evaluated by pre-and post-treatment comparisons of the patient groups with regard to (a) total body calcium retention, and (b) radial and spinal bone mineral density as determined by dual-photon absorptiometry (DPA) or dual-energy x-ray absorptiometry (DEXA). Safety is evaluated by comparisons of urinary hydroxyproline excretion, serum and urine calcium levels, creatinine clearance, blood urea nitrogen, and other routine determinations.
# [3] = Hypocalcemia and metabolic bone disease in chronic hemodialysis patients; format: in vivo, human; settings: greater than 3.0 μg/day, twelve months
# Experimental: A twelve-month, double-blind, placebo-controlled clinical trial is conducted with thirty men and women with renal disease who are undergoing chronic hemodialysis. […] Efficacy is evaluated by pre- and post-treatment comparisons of the two patient groups with regard to (a) direct measurements of intestinal calcium absorption, (b) total body calcium retention, (c) radial and spinal bone mineral density, or (d) determinations of serum calcium. Safety is evaluated by regular monitoring of serum calcium.
# Human keratinocytes = experiment: Epidermal cell differentiation and proliferation testing; format: cell-based; settings: 0.05 to 5 μg/ml; against ethanol control cultures
# Experimental: Human keratinocytes are cultured according to known modifications of the system originally described by Rheinwald and Green (Cell, vol. 6, p. 331 (1975)). The 1α,24(S)-dihydroxy vitamin D2, dissolved in ethanol, is added to cells to yield a variety of concentrations between 0.05 and 5 μg/ml with the ethanol concentration not to exceed 0.5% v/v. Control cultures are supplemented with ethanol at a final concentration of 0.5% v/v.
# Differentiation and proliferation of epidermal cells in culture is examined by:
# 1. quantitation of cornified envelopes;
# 2. quantitation of cell density of cells attached to disks;
# 3. monitoring transglutaminase activity; or
# 4. monitoring DNA synthesis by incorporation of ^3 H-thymidine.
# HL-60 promyelocytes = experiment: HL-60 cell differentiation assay; format: cell-based; settings: dose-response; acid esterase, NBT reduction, thymidine incorporation
# Experimental: A dose-response study is conducted with 1α,24(S)-(OH)2 D2 in the HL-60 cell differentiation assay as described by DeLuca and Ostrom (DeLuca, H. F. and ostrem, V. K., Prog. Clin. Biol. Res., vol. 259, pp. 41-55 (1988)). In this study, 1α,25-(OH)2 D3 is used as a positive control and appropriate solvents are used as negative controls. The following variables are evaluated: nonspecific acid esterase activity, nitroblue tetrazolium (NBT) reduction, and thymidine incorporation.
# [4] = test system: human cancer cell lines BCA-1 or ZR-75-1 (breast) and COL-1 (colon); experiment: Antiproliferative activity in human cancer cell lines (thymidine incorporation); format: cell-based; settings: dose-response in breast and colon cancer cell lines
# Experimental: Dose-response studies are conducted with 1α,24(S)-(OH)2 D2 in a battery of human cancer cell lines. These cell lines include, but are not limited to, the following: BCA-1 or ZR-75-1 (breast) and COL-1 (colon), as described by Shieh, H. L. et al. Chem. Biol. Interact., vol. 81, pp. 35-55 (1982). In this study, appropriate solvents are used as negative controls.
compound,measurement,setting,value
"C=C1/C(=C\C=C2/CCC[C@]3(C)[C@@H]([C@H](C)/C=C/[C@@](C)(O)C(C)C)CC[C@@H]23)C[C@@H](O)C[C@@H]1O [1α,24(S)-(OH)2 D2, 1α,24(S)-dihydroxy vitamin D2]",IC50,"bovine thymus VDR; bovine thymus VDR radioreceptor assay, read-out: Half-maximal binding (converted)",~0.35 nM
same,"Affinity for VDR relative to 1α,25-(OH)2 D3","bovine thymus VDR; compared with 1α,25-(OH)2 D3",two-fold less competitive; also recorded: two-fold lower affinity
same,"Binding to the vitamin D serum binding protein relative to 1,25-(OH)2 D3","[1]; compared with 1,25-(OH)2 D3",more weakly
same,Binding affinity for the vitamin D serum binding protein,[1]; in words,relatively poor binding affinity
same,Incidence of hypercalcemia or hypercalciuria or other metabolic disturbance,[2],insignificant incidence
same,"Total body calcium, radial and spinal bone densities relative to placebo",[2],significantly higher
same,Incidence of hypercalcemia,[3],insignificant incidence
same,Intestinal calcium absorption (double-isotope technique),[3],significantly increases
same,Radial and spinal bone densities relative to baseline,[3],stable
same,Serum calcium levels,[3],normalized
same,Total body calcium relative to baseline,[3],stable values
same,Cell density of attached cells,Human keratinocytes,fewer attached cells
same,Cornified envelopes,Human keratinocytes,more cornified envelopes
same,DNA synthesis (3H-thymidine incorporation),Human keratinocytes,lower DNA synthesis
same,Transglutaminase activity,Human keratinocytes,higher transglutaminase activity
same,Promotion of differentiation of HL-60 promyelocytes to monocytes,HL-60 promyelocytes,potent activity
same,Antiproliferative activity (inhibition of thymidine incorporation),[4],potent (and reversible) antiproliferative activity
